These results are taken from US4609496A, “Steroid esters of N-(2-halogenoethyl)-N-nitroso-carbamoyl-amino acids and peptides thereof, as well as methods for preparing them” (Stiftung Deutsches Krebsforshungszentrum, priority 1982, dated 1986).

The structures appear in SMILES notation.

The target in one data set is estrogen receptor (Homo sapiens, UniProt P03372). In words: biochemical. To be noted: for affinity relative to estradiol (100%): parameter of 50% bonding inhibition of 3H-tagged estradiol. An excerpt: The estrogen-linked compounds were subjected to an estrogen receptor test (Lebercytosol) (Kranzfelder, Schneider, von Angerer, Schoneberger, J. Cancer Research Chim. Oncol. 97, 167-186 (1980)).

The test system of a further data set is rat leukemia L 5222. In words: Therapy test using the model of rat leukemia L 5222. Format: in vivo. To be noted: for optimal dose: L 5222. An excerpt:
In the therapy test using the model of rat leukemia L 5222 (Ivankovic, Zeller, Leukamie L 5222 des Rattenstammes BD IX. Eine durch Athylnitrosoharnstoff induzierte monozytar-myeloische, transplantierbare Form fur zytochemische und chemotherapeutische Studien [Leukemia L 5222 of Rats of Stock BD IX. A monocytic-myeloid, transplantable form induced by ethylnitrosourea for cytochemical and chemotherapeutic studies]. Blut [Blood], 28; 288-292, 1974 and Zeller, Ivankovic, Schmahl, Cancer Research, Vol. 35, 1168-1174, 1975), the cortisone conjugate has good activity. At 176 mg/kg, the total median (replicated experiment!) at 65 days was 3 cured animals out of 6, while with CNU alanine in an equimolar dose with cortisone no cures were attained, with a median survival time of 20 days.

Data set [1] in a line: Toxicity of the compounds (LD50). To be noted: for LD50 at 2160 h: in vivo, period of observation: 90 days (printed with the cortisone ester). Format: in vivo. An excerpt:
Data on the toxicity of the compounds

Chain of estrogen receptor (P03372 whole entry): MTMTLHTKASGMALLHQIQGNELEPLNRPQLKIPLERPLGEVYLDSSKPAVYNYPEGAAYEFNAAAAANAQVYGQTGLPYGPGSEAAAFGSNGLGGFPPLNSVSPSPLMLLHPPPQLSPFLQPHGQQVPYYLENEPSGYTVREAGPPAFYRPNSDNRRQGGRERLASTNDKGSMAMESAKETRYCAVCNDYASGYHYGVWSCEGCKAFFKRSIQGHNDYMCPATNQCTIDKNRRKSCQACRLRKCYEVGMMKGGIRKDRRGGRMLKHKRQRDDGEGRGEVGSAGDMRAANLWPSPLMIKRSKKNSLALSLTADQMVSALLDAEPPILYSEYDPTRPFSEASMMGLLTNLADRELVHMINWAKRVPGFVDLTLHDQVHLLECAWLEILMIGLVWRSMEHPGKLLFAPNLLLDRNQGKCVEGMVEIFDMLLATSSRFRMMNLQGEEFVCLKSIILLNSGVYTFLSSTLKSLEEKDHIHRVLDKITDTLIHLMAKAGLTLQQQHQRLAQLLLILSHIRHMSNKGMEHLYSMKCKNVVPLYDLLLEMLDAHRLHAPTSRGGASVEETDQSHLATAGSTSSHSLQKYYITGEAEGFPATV

With `C[C@H](NC(=O)N(CCCl)N=O)C(=O)Oc1ccc2c(c1)CC[C@@H]1[C@@H]2CC[C@]2(C)[C@@H](O)CC[C@@H]12` [N-(2-chloroethyl)-N-nitroso-carbamoyl-L-alanine-estradiol-3-ester], at estrogen receptor, the IC50 amounted to 50 nM and the “affinity relative to estradiol (100%)” value came out at 16%. The compound also had an optimal dose in the data set with rat leukemia L 5222 of 279 mg/kg. In the data set with rat leukemia L 5222 (optimal dose 279 mg/kg), this compound yielded a cures of 2 cures and a median survival time of 49 days.

For the compound `CC(NC(=O)N(CCCl)N=O)C(=O)OCC(=O)C1(O)CCC2C3CCC4=CC(=O)CCC4(C)C3C(=O)CC21C` [N-(2-chloroethyl)-N-nitroso-carbamoyl-L-alanine-cortisone-21-ester], in the data set on rat leukemia L 5222 (176 mg/kg), the cured animals is 3 cured animals out of 6. Also, the “total median (survival)” value in the data set with rat leukemia L 5222 (176 mg/kg, replicated experiment) is on record as 65 days. Besides, the “activity in therapy test” value in the data set on rat leukemia L 5222 (rat leukemia L 5222) is recorded as “good activity”. In data set [1], this compound displayed an LD50 at 2160 h of 220 to 280 mg/kg. Further, the “reduction in toxicity by linking CNU alanine with cortisone” value in data set [1] (relative to CNU alanine) is recorded as “sharp reduction in toxicity (by approximately threefold)”.

Take `C[C@H](NC(=O)N(CCCl)N=O)C(=O)Oc1ccc2c(c1)CC[C@@H]1[C@@H]2CC[C@]2(C)C(=O)CC[C@@H]12` [N-(2-chloroethyl)-N-nitroso-carbamoyl-L-alanine-estrone-ester]: on estrogen receptor, the IC50 stood at 190 nM and the “affinity relative to estradiol (100%)” value is 4%. Further, the optimal dose in the data set on rat leukemia L 5222 is 351 mg/kg. For the same compound, in the data set on rat leukemia L 5222 (compared with the cortisone derivative), the “toxicity measured in tumor-bearing animals” value is listed as “even lower than with the cortisone derivative”. In the data set on rat leukemia L 5222 (optimal dose 351 mg/kg), the “total median (survival)” value is 43 days.

Turning to `C[C@H](NC(=O)N(CCCl)N=O)C(=O)O` [CNU alanine, reference compound], in the data set with rat leukemia L 5222 (equimolar dose with cortisone), the cures result is on record as “no cures” and the median survival time amounted to 20 days. Further, in data set [1], the LD50 at 2160 h was in the range of 40 to 50 mg/kg.
